One data set deals with Cytochrome P450 2C9 (Homo sapiens, UniProt P11712).
The target of data set [1] is T1, UDP-glucuronosyltransferase 1A9 (Homo sapiens, UniProt O60656).
T1 sequence (O60656 whole entry): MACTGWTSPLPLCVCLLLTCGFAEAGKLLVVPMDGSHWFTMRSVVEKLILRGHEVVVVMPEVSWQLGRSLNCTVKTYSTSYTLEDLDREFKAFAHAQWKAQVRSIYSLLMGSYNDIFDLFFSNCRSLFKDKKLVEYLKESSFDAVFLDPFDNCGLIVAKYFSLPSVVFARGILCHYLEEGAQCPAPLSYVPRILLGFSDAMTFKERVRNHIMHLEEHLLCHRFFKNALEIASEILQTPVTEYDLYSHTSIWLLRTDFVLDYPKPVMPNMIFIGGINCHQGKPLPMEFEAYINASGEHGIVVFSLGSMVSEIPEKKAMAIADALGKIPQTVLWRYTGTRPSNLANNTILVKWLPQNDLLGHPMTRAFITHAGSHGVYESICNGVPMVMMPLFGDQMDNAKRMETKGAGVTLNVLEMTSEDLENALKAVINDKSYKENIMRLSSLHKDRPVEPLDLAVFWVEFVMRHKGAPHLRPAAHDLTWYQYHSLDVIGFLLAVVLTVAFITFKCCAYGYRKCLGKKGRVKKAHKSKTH
Put plainly: Drug metabolism assessed as UGT1A9 (unknown origin)-mediated metabolite formation. It counts as ADME.

A further data set concerns the target Cytochrome P450 3A4 (Homo sapiens, UniProt P08684).
Data set [2] concerns the target T2, UDP-glucuronosyltransferase 1A6 (Homo sapiens, UniProt P19224).
T2 sequence (P19224 whole entry): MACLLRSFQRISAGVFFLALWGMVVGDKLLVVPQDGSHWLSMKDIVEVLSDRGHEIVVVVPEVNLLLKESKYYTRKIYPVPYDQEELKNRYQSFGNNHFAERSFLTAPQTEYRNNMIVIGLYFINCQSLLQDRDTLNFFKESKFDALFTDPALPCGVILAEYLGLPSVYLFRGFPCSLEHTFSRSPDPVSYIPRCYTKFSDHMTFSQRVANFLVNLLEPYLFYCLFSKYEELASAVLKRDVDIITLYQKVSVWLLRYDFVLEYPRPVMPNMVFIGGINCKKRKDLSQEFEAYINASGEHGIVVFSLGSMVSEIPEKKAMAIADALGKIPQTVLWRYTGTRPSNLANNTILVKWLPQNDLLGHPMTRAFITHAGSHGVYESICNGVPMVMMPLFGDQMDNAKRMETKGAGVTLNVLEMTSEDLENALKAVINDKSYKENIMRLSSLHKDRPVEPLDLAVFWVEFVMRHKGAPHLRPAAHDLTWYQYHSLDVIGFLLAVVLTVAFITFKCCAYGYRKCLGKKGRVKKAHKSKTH
Put plainly: Drug metabolism assessed as UGT1A6 (unknown origin)-mediated metabolite formation. It counts as ADME.

Data set [3] has as its target T3, UDP-glucuronosyltransferase 1A3 (Homo sapiens, UniProt P35503).
T3 sequence (P35503 whole entry): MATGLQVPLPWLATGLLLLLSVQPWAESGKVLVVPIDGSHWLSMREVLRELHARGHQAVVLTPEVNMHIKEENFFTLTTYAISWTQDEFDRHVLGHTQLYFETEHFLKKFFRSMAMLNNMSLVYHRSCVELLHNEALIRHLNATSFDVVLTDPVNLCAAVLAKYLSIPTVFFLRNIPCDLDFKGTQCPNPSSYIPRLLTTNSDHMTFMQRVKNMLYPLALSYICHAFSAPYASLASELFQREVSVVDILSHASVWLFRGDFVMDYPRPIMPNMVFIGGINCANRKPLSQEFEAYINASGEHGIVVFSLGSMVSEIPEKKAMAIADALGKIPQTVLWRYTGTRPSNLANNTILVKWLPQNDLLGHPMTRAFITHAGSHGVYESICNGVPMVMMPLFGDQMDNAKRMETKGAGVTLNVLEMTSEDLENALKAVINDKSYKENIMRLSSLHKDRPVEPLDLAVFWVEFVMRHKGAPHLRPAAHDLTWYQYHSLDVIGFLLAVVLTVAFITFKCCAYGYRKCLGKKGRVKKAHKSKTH
Put plainly: Drug metabolism assessed as UGT1A3 (unknown origin)-mediated metabolite formation. It counts as ADME.

Data set [4] concerns the target T4, UDP-glucuronosyltransferase 1A1 (Homo sapiens, UniProt P22309).
T4 sequence (P22309 whole entry): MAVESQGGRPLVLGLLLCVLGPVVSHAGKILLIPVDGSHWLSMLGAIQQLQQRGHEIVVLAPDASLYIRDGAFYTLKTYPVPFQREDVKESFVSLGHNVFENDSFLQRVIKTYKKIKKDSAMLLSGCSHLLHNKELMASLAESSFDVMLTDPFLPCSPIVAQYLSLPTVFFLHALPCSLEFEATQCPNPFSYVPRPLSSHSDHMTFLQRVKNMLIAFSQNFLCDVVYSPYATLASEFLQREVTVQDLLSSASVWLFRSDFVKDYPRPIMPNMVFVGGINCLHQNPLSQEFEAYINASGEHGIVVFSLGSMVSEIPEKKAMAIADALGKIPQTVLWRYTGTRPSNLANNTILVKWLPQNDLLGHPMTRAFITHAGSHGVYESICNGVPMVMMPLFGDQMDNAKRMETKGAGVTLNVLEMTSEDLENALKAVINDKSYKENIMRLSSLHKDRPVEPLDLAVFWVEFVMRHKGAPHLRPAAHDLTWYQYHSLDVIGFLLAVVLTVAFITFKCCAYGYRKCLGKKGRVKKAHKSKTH
As to the kind of experiment: Drug metabolism assessed as UGT1A1 (unknown origin)-mediated metabolite formation. It counts as ADME.

The target of the next data set is T5, Cytochrome P450 1A2 (Homo sapiens, UniProt P05177).
T5 sequence (P05177 whole entry): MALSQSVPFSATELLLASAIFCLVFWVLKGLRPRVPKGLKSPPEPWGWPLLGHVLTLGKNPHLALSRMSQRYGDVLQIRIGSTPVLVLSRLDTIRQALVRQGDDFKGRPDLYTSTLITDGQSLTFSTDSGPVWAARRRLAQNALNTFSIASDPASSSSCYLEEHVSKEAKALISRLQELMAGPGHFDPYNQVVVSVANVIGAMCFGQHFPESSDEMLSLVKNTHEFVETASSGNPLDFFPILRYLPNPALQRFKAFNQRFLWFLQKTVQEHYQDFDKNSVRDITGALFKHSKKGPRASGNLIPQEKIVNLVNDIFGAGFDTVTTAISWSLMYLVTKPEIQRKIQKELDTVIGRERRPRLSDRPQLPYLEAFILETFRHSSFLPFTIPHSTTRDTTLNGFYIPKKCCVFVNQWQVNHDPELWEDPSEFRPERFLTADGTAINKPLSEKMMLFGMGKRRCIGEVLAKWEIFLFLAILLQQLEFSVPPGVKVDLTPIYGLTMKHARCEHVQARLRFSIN

Sequence of Cytochrome P450 3A4 (P08684 whole entry): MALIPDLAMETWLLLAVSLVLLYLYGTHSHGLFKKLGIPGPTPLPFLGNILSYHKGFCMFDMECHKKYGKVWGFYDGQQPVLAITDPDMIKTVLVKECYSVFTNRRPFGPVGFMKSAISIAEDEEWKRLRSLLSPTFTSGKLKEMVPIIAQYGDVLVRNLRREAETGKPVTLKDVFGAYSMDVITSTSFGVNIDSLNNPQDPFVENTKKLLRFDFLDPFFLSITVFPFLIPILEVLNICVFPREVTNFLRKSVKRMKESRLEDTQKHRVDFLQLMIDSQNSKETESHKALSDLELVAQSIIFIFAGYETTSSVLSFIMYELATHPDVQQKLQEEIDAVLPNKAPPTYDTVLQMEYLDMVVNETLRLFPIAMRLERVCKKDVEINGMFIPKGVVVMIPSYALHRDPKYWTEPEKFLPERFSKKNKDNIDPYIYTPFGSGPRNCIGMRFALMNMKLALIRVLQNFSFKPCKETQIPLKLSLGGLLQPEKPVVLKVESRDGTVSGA
Sequence of Cytochrome P450 2C9 (P11712 whole entry): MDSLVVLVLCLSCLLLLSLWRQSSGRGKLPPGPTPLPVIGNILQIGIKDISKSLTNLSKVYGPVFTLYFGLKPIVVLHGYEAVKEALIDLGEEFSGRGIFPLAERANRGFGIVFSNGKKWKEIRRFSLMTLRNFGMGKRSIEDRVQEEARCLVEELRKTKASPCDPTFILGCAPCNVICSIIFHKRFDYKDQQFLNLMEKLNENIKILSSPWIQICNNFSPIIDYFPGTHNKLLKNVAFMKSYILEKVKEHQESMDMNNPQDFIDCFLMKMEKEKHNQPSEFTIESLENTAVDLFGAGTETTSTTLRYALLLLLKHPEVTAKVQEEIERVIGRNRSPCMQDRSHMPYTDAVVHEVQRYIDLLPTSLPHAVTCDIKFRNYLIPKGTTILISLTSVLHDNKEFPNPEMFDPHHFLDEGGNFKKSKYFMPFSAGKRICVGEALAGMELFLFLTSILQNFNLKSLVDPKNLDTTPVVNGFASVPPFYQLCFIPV
Description for Cytochrome P450 1A2: Drug metabolism assessed as CYP1A2 (unknown origin)-mediated metabolite formation
Description for Cytochrome P450 2C9: Drug metabolism assessed as CYP2C9 (unknown origin)-mediated metabolite formation
Description for Cytochrome P450 3A4: Drug metabolism assessed as CYP3A4 (unknown origin)-mediated metabolite formation

As for `CC(C)Cc1ccc(C(C)C(=O)O)cc1` (stereo not given) [IBUPROFEN], the Drug metabolism result at Cytochrome P450 2C9 is on record as “Metabolite_Detected”; in data set [1] it was “Metabolite_Detected”; at Cytochrome P450 3A4 it was “Metabolite_Notdetected”; in data set [2], “Metabolite_Detected”; in data set [3] it was “Metabolite_Detected”; in data set [4] it was “Metabolite_Notdetected”. Further, the Drug metabolism result at Cytochrome P450 1A2 is reported as “Metabolite_Notdetected”.
For the compound `CCOCc1cn(-c2ccc(Cl)cc2)nn1`, the Drug metabolism result (at Cytochrome P450 2C9; in data set [1]; on Cytochrome P450 3A4; in data set [2]; in data set [3]; in data set [4]) was “Metabolite_Notdetected” throughout. Moreover, at Cytochrome P450 1A2, the Drug metabolism entry is “Metabolite_Detected”.
For the compound `O=C(O)Cc1ccccc1Nc1c(Cl)cccc1Cl` [DICLOFENAC], the Drug metabolism result on Cytochrome P450 2C9 was “Metabolite_Detected”; in data set [1], “Metabolite_Notdetected”; at Cytochrome P450 3A4, “Metabolite_Notdetected”; in data set [2], “Metabolite_Notdetected”; in data set [3] it was “Metabolite_Detected”; in data set [4] it was “Metabolite_Notdetected”. For the same compound, the Drug metabolism entry on Cytochrome P450 1A2 was “Metabolite_Notdetected”.
On to `COc1ccc2cc([C@H](C)C(=O)O)ccc2c1` [NAPROXEN], for which the Drug metabolism entry in data set [1], in data set [2], in data set [3] and in data set [4] was “Metabolite_Detected” each time.

These data come from ChEMBL document CHEMBL4130413, “1-Aryl-1H- and 2-aryl-2H-1,2,3-triazole derivatives blockade P2X7 receptor in vitro and inflammatory response in vivo” (Eur J Med Chem, 2017).
